# Experimental data taken from patent US20230035479A1, “METHODS AND COMPOSITIONS FOR REDUCING HAIR GREYING” (President and Fellows of Harvard College, priority 2019, published 2023).
# Legend:
# Type in all cases: in vivo, mouse
# [1] = Fontana-Masson melanin staining; details: 5 days after RTX injection
# Method: They also began to depart from the bulge—some migrated downwards along the hair follicle, and some migrated out into dermis or epidermis (FIG. 4C, D2 and D3). By Day 3, many GFP positive cells had migrated out of the bulge, and by Day 4, many hair follicles had lost all GFP positive cells in the bulge.
# Mouse skin samples were fixed using 4% paraformaldehyde (PFA) for 15 minutes at room temperature, washed 6 times with PBS, and immersed in 30% sucrose overnight at 4° C. Samples were then embedded in OCT (Sakura Finetek). 35˜50 μm sections were fixed in 4% paraformaldehyde (PFA) for 2 minutes and washed with PBS and PBST. Slides were then blocked using blocking buffer (5% donkey serum; 1% BSA, 2% cold water fish gelatin in 0.3% Triton in PBS) for 1 hour at room temperature, followed by staining with primary antibodies overnight at 4° C. and secondary antibody for 4 hours at room temperature. For sympathetic nerve density quantification, 90 μm sections were used. EdU was developed for 1 hour using the Click-It reaction according to manufacturer instructions (Thermo Fisher Scientific). TUNEL assay was performed according to manufacturer instructions (Roche). Fontana—Masson staining was performed according to manufacturer instructions (Market Lab ML7255). […]
# [2] = tested on: melanocyte stem cells (MeSCs); test: Apoptosis (active caspase-3, TUNEL) and DNA damage (gamma-H2AX) in MeSCs
# Method: Radiation causes DNA damage in MeSCs, leading to their differentiation within the niche.
# Mouse skin samples were fixed using 4% paraformaldehyde (PFA) for 15 minutes at room temperature, washed 6 times with PBS, and immersed in 30% sucrose overnight at 4° C. Samples were then embedded in OCT (Sakura Finetek). 35˜50 μm sections were fixed in 4% paraformaldehyde (PFA) for 2 minutes and washed with PBS and PBST. Slides were then blocked using blocking buffer (5% donkey serum; 1% BSA, 2% cold water fish gelatin in 0.3% Triton in PBS) for 1 hour at room temperature, followed by staining with primary antibodies overnight at 4° C. and secondary antibody for 4 hours at room temperature. For sympathetic nerve density quantification, 90 μm sections were used. EdU was developed for 1 hour using the Click-It reaction according to manufacturer instructions (Thermo Fisher Scientific). TUNEL assay was performed according to manufacturer instructions (Roche). Fontana—Masson staining was performed according to manufacturer instructions (Market Lab ML7255). Antibodies used: TRP2 (Santa Cruz 10451, 1:800), tyrosine hydroxylase (rabbit, Millipore AB152, 1:1000 or sheep, Millipore AB1542, 1:150-1:300), c-Fos (Abcam, 190289, 1:1000), γ-H2AX (Cell Signaling, 9718, 1:400), phospho-histone H3 (rabbit, Cell Signaling Technology 3377S, 1:500), cleaved caspase 3 (rabbit, Cell Signaling Technology 9664S, 1:400), GFP (rabbit, Abcam ab290, 1:1000 or chicken, Ayes labs GFP-1010, 1:200), CD3 (eBioscience 14-0032-81, 1:800), CD11b (eBioscience 14-0112-81, 1:800), Phospho-CREB (Cell Signaling 9198, 1:800), MITF (Abcam ab12039, 1:400).
# [3] = tested on: melanocyte stem cells (MeSCs); test: RNA-seq of FACS-purified MeSCs; details: 12 hours after RTX injection
# Method: Examination of marker gene expression for diverse skin cell types confirmed successful enrichment for MeSCs (FIG. 12D). To uncover major molecular changes, Gene Ontology (GO) enrichment analysis was conducted (FIG. 5B). A list of known genes associated with MeSC proliferation and differentiation was curated (FIG. 5C, FIG. 12E). Moreover, a list of genes previously denoted for cell cycle entry was utilized to assess if cell cycle regulators are altered at the transcriptional level (FIG. 12F). Some of these key changes were also verified by quantitative RT-PCR (qRT-PCR) (FIG. 12G). […]
# MeSCs were purified using FACS from control and stressed mice skin samples at telogen based on their expression of CD117 [7], starting from a population that is negative for CD140a, CD45, Sca1, and CD34 [57]. […] Single-end sequencing reads were obtained using Illumina NextSeq 500 platform. Sequencing reads from RNA-seq libraries were trimmed using Trim Galore! […] Reads with alignment quality <Q30 were discarded. Gene expression levels were normalized and differential genes were calculated using DEseq2 package in R [60]. […] Transcripts Per Kilobase Million (TPM) calculated from count tables of Control MeSC samples were used to determine the expression levels of adrenergic receptors and glucocorticoid receptor shown in FIG. 2C.
smiles,measurement,setting,value
"C=C(C)[C@]12C[C@@H](C)[C@@]34O[C@](Cc5ccccc5)(O[C@@H]1[C@@H]3C=C(COC(=O)Cc1ccc(O)c(OC)c1)C[C@]1(O)C(=O)C(C)=C[C@@H]41)O2 [RTX, resiniferatoxin]",ectopic pigmentation,[1],"ectopic pigmentation could be detected along the hair follicle, epidermis, and dermis"
same,active caspase-3 or TUNEL signals in MeSCs,"[2]; before MeSC depletion from the niche, 1 day after injection",failed to detect active caspase-3 or TUNEL signals
same,gamma-H2AX foci (DNA damage) in MeSCs,[2]; following injection,failure to detect gamma-H2AX foci
same,transcriptome changes in MeSCs,[3],upregulate proliferation and differentiation programs
